According to PubChem BioAssay AID1919013 (Molecular Pharmacology Branch, DTP, NCI, 2023):
Where “and” joins values, the source holds several entries; their conditions need not be identical. Equal entries are not always repeated.

Test system: LG0703-F498-PDC complex spheroid growth
Experiment: Anticancer human tumor LG0703-F498-PDC patient-derived lung adenocarcinoma cell line growth inhibition [AhR]
Conditions: for viability, T/C: stronger effect = lower value
Procedure, shortened: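 Complex tumor spheroids co-cultured with HUVEC and human MSC stroma; AhR antagonists tested in combination with standard-of-care and investigational agents. Top concentration at or near clinical Cmax (else 10 microM), half-log dilutions; growth expressed as percent test/control.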

[1] = curve of first compound, second compound 0.1 µM
[2] = curve of first compound, second compound 0.316 µM
[3] = curve of first compound, second compound 1 µM
[4] = curve of first compound, second compound 3.16 µM
[5] = curve of first compound, second compound 10 µM
[6] = second compound 0.1 µM, first compound 0.00316 µM
[7] = second compound 0.1 µM, first compound 0.01 µM
[8] = second compound 0.1 µM, first compound 0.0316 µM
[9] = second compound 0.1 µM, first compound 0.1 µM
[10] = second compound 0.1 µM, first compound 0.316 µM
[11] = second compound 0.1 µM, first compound 1 µM
[12] = second compound 0.316 µM, first compound 0.00316 µM
[13] = second compound 0.316 µM, first compound 0.01 µM
[14] = second compound 0.316 µM, first compound 0.0316 µM
[15] = second compound 0.316 µM, first compound 0.1 µM
[16] = second compound 0.316 µM, first compound 0.316 µM
[17] = second compound 0.316 µM, first compound 1 µM
[18] = second compound 1 µM, first compound 0.00316 µM
[19] = second compound 1 µM, first compound 0.01 µM
[20] = second compound 1 µM, first compound 0.0316 µM
[21] = second compound 1 µM, first compound 0.1 µM
[22] = second compound 1 µM, first compound 0.316 µM
[23] = second compound 1 µM, first compound 1 µM
[24] = second compound 3.16 µM, first compound 0.00316 µM
[25] = second compound 3.16 µM, first compound 0.01 µM
[26] = second compound 3.16 µM, first compound 0.0316 µM
[27] = second compound 3.16 µM, first compound 0.1 µM
[28] = second compound 3.16 µM, first compound 0.316 µM
[29] = second compound 3.16 µM, first compound 1 µM
[30] = second compound 10 µM, first compound 0.00316 µM
[31] = second compound 10 µM, first compound 0.01 µM
[32] = second compound 10 µM, first compound 0.0316 µM
[33] = second compound 10 µM, first compound 0.1 µM
[34] = second compound 10 µM, first compound 0.316 µM
[35] = second compound 10 µM, first compound 1 µM
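Further: luminescence taken as a proxy for viable cell amount.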
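Wherever viability, T/C is given: percent of DMSO vehicle control where 100% means growth equal to vehicle.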

IC50 [1]	IC50 [2]	IC50 [3]	IC50 [4]	IC50 [5]	SMILES	viability, T/C [6]	viability, T/C [7]	viability, T/C [8]	viability, T/C [9]	viability, T/C [12]	viability, T/C [13]	viability, T/C [14]	viability, T/C [15]	viability, T/C [18]	viability, T/C [19]	viability, T/C [20]	viability, T/C [21]	viability, T/C [24]	viability, T/C [25]	viability, T/C [26]	also measured
0.666 µM	0.465 µM	0.602 µM	0.416 µM	0.243 µM	CC1COCCN1c1cc(-c2ccnn2C)c2ccnc(-c3ccn[nH]3)c2n1 (configuration not stated) + CC(CO)NC(=O)c1cc(-c2ccc(Cl)cc2)nn(-c2cnn(C)c2)c1=O	107%	104%	93.4%	70.6%	93.2%	110%	96.6%	72.5%	108%	102%	90.7%	82.4%	87.5%	90.5%	78.2%	viability, T/C [10]: 66.2%; viability, T/C [11]: 42.5%; viability, T/C [16]: 55.8%; viability, T/C [17]: 43.4%; viability, T/C [22]: 58.1%; viability, T/C [23]: 42.5%; viability, T/C [27]: 67.2%; viability, T/C [28]: 55.1%; viability, T/C [29]: 37.9%; viability, T/C [30]: 101%; viability, T/C [31]: 90.1%; viability, T/C [32]: 82.7%; viability, T/C [33]: 60.8%; viability, T/C [34]: 47.1%; viability, T/C [35]: 32.6%
> 0.1 µM	> 0.1 µM	> 0.1 µM	> 0.1 µM	> 0.1 µM	Cn1ncnc1C1c2n[nH]c(=O)c3cc(F)cc(c23)NC1c1ccc(F)cc1 (configuration not stated) + CC(CO)NC(=O)c1cc(-c2ccc(Cl)cc2)nn(-c2cnn(C)c2)c1=O	99.1%	79.5%	90.2%	80.9%	83.3%	72.6%	83.1%	71.5%	88.7%	73.4%	75.1%	74.6%	80.4%	73.9%	71.8%	viability, T/C (second compound 0.1 µM, first compound 0.000316 µM): 89.3%; viability, T/C (second compound 0.1 µM, first compound 0.001 µM): 86.6%; viability, T/C (second compound 0.316 µM, first compound 0.000316 µM): 79.2%; viability, T/C (second compound 0.316 µM, first compound 0.001 µM): 95.7%; viability, T/C (second compound 1 µM, first compound 0.000316 µM): 76.7%; viability, T/C (second compound 1 µM, first compound 0.001 µM): 91.2%; viability, T/C (second compound 3.16 µM, first compound 0.000316 µM): 80.8%; viability, T/C (second compound 3.16 µM, first compound 0.001 µM): 83.7%; viability, T/C [27]: 70.2%; viability, T/C (second compound 10 µM, first compound 0.000316 µM): 69.6%; viability, T/C (second compound 10 µM, first compound 0.001 µM): 74.3%; viability, T/C [30]: 79.7%; viability, T/C [31]: 73.6%; viability, T/C [32]: 76.8%; viability, T/C [33]: 66.8%
–	–	–	–	–	CCN(c1cc(-c2ccc(CN3CCOCC3)cc2)cc(C(=O)NCc2c(C)cc(C)[nH]c2=O)c1C)C1CCOCC1	–	–	–	–	–	–	–	–	–	–	–	–	–	–	–	viability, T/C (compound 0.00949 µM): 102% and 110% and 103%; viability, T/C (compound 0.03 µM): 111% and 109% and 112%; viability, T/C (compound 0.0949 µM): 103% and 98.8% and 101%; viability, T/C (compound 0.3 µM): 99.3% and 99% and 107%; viability, T/C (compound 0.949 µM): 122% and 101% and 121%; viability, T/C (compound 3 µM): 106% and 110% and 113%; IC50 (curve of compound): > 3 µM
> 1 µM	> 1 µM	> 1 µM	> 1 µM	< 0.00316 µM	Nc1ncn(C2CC(O)C(CO)O2)c(=O)n1 (configuration not stated) + Cc1cncc(-c2nc(NCCc3c[nH]c4ccccc34)c3ncn(C(C)C)c3n2)c1	85.7%	98%	94.8%	84.4%	109%	102%	88%	86.8%	106%	116%	98.7%	89.3%	56%	59.8%	58.5%	viability, T/C [10]: 79.9%; viability, T/C [11]: 86.4%; viability, T/C [16]: 81.9%; viability, T/C [17]: 79.9%; viability, T/C [22]: 89.3%; viability, T/C [23]: 87.2%; viability, T/C [27]: 64.3%; viability, T/C [28]: 55.1%; viability, T/C [29]: 60%; viability, T/C [30]: 1.37%; viability, T/C [31]: 1.38%; viability, T/C [32]: 1.23%; viability, T/C [33]: 1.12%; viability, T/C [34]: 1.02%; viability, T/C [35]: 1.63%
